IC50 data for 13 molecules are collected here from patent US8940756B2, “Dihydronaphthyridines and related compounds useful as kinase inhibitors for the treatment of proliferative diseases” (Deciphera Pharmaceuticals, Inc., priority 2012, dated 2015).

Test [1] deals with T1, c-KIT T670I kinase (Seq ID no. 6) (Homo sapiens, UniProt P10721, T670I).
T1 construct: GST (N); TEV cleavage site (N); purchased deCODE Biostructures
Description: c-KIT T670I Kinase Assay. The test is classed as biochemical. The settings on record: enzymatic assay, ATP 200 uM. Here is the method: (§1) In this assay, the oxidation of NADH (measured by decrease in absorbance at 340 nm) was continuously monitored spectrophotometrically. […] The inhibition reaction was started by mixing serial diluted test compound with the above reaction mixture. The absorption at 340 nm was monitored continuously for 5 hours at 30° C. on Synergy 2 plate reader (BioTech). […] The protein construct was prepared by deCODE Biostructures using procedures known in the art. The construct contains […] of cKit, an N-terminal tag, a GST-fusion sequence and a TEV cleavage site. This construct is identical to Seq ID no.

The target in test [2] is T2, c-KIT kinase (Seq ID no. 1) (Homo sapiens, UniProt P10721).
T2 construct: GST (N); TEV cleavage site (N); purchased deCODE Biostructures
Kind of test: c-KIT Kinase Assay (pyruvate kinase/lactate dehydrogenase coupled). The conditions noted are these: enzymatic assay, ATP 200 μM; read-out: KIT (wt). In kind it is biochemical. Here is the method: In this assay, the oxidation of NADH (measured by decrease in absorbance at 340 nm) was continuously monitored spectrophotometrically. […] The absorption at 340 nm was monitored continuously for 2 hours at 30° C. on Synergy 2 (BioTeK). The reaction rate was calculated using the 0 to 1 h time frame. Percent inhibition was obtained by comparison of reaction rate with that of a control (i.e. with no test compound). IC50 values were calculated from a series of percent inhibition values determined at a range of inhibitor concentrations using software routines as implemented in the GraphPad Prism software package. The protein construct was prepared by deCODE Biostructures using procedures known in the art. The construct contains […] of cKit, an N-terminal tag, a GST-fusion sequence and a TEV cleavage site.

In test [3] the target is T3, c-KIT D816V kinase (Seq ID no. 4) (Homo sapiens, UniProt P10721, D816V).
T3 construct: D816V c-KIT (residues T544-V976 with N-terminal GST fusion, 16 nM); purchased deCODE Biostructures
Kind of test: c-KIT D816V kinase Assay. In kind it is biochemical. The settings on record: enzymatic assay, ATP 200 uM. The method, then: In this assay, the oxidation of NADH (measured by decrease in absorbance at 340 nm) was continuously monitored spectrophotometrically. […] The inhibition reaction was started by mixing serial diluted test compound with the above reaction mixture. The absorption at 340 nm was monitored continuously for 5 hours at 30° C. on Synergy 2 plate reader (BioTech).
The protein construct was prepared by deCODE Biostructures using procedures known in the art. The construct contains residues T544-V976 of cKit, an N-terminal tag, a GST-fusion sequence and a TEV cleavage site. This construct is identical to Seq ID no. 1 except for the D816V mutation.

Test [4] has as its target T4, c-KIT D816H kinase (Seq ID no. 3) (Homo sapiens, UniProt P10721, D816H).
T4 construct: GST (N); TEV cleavage site (N); purchased deCODE Biostructures
Description: c-KIT D816H Kinase Assay. The test is classed as biochemical. The settings on record: enzymatic assay, ATP 200 μM. The method, then:
as §1, with “6” for “5”, “no. 1 except for the D816H mutation.” for “no.”

The target of test [5] is Phospho-KIT (Tyr719) in GIST48 cells (Homo sapiens, UniProt P10721). Description: GIST48 KIT Western Blot. The test is classed as cell-based. The settings on record: 4 hours, read-out: pKIT suppression by western blot analysi GIST48. Here is the method:
(§2) GIST48, GIST430, and GIST882 cells were obtained from J. Fletcher (Brigham and Women's Hospital, Boston, Mass.). GIST T1 cells were obtained from B. Rubin (Cleveland Clinic, Cleveland, Ohio) and Professor Takahiro Taguchi (Kochi Medical School, Nankoku, Kochi, Japan). […] GIST430 cells were grown in Ham's F10 medium supplemented with 15% characterized fetal bovine serum (Invitrogen, Carlsbad, Calif.), 30 mg/L bovine pituitary extract (BD Biosciences, San Jose, Calif.), 0.5% Mito+ serum extender (BD Biosciences, San Jose, Calif.), 1 unit/mL penicillin G, 1 μg/ml streptomycin, and 0.29 mg/mL L-glutamine at 37° C., 5% CO2, 95% humidity. GIST T1 cells were grown in DMEM medium supplemented with 10% characterized fetal bovine serum (Invitrogen, Carlsbad, Calif.), 1 unit/mL penicillin G, 1 ng/ml streptomycin, and 0.29 mg/mL L-glutamine at 37° C., 5% CO2, and 95% humidity. Cells were allowed to expand until reaching 70-95% confluence at which point they were subcultured or harvested for assay use.
(§3) Two hundred fifty thousand cells were added per well in a 24-well tissue-culture treated plate. Cells were then incubated overnight at 37° C., 5% CO2, 95% humidity. Medium was aspirated, cells were washed with PBS, and serum-free RPMI1640 medium was added. A serial dilution of test compound was added to plates containing cells and plates were incubated for 4 hours at 37° C., 5% CO2, 95% humidity. Cells were washed with PBS, then lysed. Cell lysates were separated by SDS-PAGE and transferred to PVDF. Phospho-KIT (Tyr719) was detected using an antibody from Cell Signaling Technology (Beverly, Mass.), ECL Plus detection reagent (GE Healthcare, Piscataway, N.J.) and a Molecular Devices Storm 840 phosphorimager in fluorescence mode. Blots were stripped and probed for total KIT using an antibody from Santa Cruz Biotech (Santa Cruz, Calif.). IC50 values were calculated using Prism software (Graphpad, San Diego, Calif.).
Background: Immunoblotting shows a protein as a band on a membrane.

For test [6], the target named is Phospho-KIT (Tyr719) in GIST430 cells (Homo sapiens, UniProt P10721). Kind of test: GIST430 KIT Western Blot. The test is classed as cell-based. The conditions noted are these: 4 hours, read-out: pKIT suppression by western blot analysi GIST430. Here is the method:
as §2
as §3, with “One” for “Two”, “Ham's F10” for “RPMI1640”

SMILES strings stand for the structures.

T2 sequence (P10721 with tags, fused parts or gaps): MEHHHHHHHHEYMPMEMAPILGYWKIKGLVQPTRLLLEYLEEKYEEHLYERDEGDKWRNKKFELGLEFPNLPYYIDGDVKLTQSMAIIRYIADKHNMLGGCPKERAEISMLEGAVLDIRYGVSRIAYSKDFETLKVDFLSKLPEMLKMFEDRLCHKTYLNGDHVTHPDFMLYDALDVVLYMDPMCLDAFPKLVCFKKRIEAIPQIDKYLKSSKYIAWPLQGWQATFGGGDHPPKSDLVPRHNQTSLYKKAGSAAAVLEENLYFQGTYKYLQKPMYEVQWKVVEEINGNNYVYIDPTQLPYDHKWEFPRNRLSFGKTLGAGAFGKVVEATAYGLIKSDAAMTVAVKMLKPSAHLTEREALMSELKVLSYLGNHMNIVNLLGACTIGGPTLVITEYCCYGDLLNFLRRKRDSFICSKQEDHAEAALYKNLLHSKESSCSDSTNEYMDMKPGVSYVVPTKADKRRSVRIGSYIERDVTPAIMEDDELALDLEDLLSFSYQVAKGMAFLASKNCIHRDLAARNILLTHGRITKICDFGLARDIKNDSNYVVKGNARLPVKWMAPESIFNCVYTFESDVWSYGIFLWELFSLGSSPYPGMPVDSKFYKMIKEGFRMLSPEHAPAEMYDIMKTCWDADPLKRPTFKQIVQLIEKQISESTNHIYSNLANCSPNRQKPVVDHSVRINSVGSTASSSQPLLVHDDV
T1 sequence (P10721 544-976 T670I): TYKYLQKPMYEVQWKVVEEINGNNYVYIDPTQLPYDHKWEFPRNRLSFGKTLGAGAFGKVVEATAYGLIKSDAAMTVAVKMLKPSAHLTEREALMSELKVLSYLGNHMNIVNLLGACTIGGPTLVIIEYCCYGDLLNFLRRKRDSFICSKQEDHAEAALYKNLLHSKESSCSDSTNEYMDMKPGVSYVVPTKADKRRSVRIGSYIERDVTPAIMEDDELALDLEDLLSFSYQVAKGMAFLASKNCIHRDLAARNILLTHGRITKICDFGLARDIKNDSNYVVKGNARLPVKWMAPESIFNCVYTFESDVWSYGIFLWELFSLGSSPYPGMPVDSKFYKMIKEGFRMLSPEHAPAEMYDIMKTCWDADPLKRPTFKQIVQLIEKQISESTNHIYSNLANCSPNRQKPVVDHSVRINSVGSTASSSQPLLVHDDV
T3 sequence (P10721 544-976 D816V): as the sequence (P10721 544-976 T670I) above, with I127T, D273V counted along it
T4 sequence (P10721 544-976 D816H): as the sequence (P10721 544-976 T670I) above, with I127T, D273H counted along it
Sequence of Phospho-KIT (Tyr719) in GIST430 cells (P10721 with tags, fused parts or gaps DEL560-576/V654A, form open): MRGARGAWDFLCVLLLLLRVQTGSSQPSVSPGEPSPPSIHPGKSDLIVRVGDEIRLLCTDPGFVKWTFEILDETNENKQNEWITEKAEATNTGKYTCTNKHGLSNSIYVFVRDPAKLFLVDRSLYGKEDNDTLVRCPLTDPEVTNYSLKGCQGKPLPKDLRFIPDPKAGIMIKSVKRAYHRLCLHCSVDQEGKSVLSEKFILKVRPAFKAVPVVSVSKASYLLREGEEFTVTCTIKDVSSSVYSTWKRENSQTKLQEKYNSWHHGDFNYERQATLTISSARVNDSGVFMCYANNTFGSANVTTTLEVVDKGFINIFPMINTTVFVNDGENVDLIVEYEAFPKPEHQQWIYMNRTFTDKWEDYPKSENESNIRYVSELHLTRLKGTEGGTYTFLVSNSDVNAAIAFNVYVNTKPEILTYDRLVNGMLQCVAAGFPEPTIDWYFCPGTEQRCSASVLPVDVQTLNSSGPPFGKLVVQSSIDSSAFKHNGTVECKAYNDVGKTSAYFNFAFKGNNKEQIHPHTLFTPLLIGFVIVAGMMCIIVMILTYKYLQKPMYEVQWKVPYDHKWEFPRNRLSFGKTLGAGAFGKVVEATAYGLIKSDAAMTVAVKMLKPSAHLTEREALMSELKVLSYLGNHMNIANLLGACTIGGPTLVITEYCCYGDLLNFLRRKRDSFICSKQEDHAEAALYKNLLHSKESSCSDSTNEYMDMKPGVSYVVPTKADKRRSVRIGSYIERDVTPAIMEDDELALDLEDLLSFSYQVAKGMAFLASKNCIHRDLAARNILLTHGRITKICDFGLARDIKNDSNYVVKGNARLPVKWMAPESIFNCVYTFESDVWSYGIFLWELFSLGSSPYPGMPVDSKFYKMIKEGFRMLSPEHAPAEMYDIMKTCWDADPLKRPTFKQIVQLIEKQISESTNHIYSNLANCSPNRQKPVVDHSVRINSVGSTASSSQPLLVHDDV
Sequence of Phospho-KIT (Tyr719) in GIST48 cells (P10721 whole entry V560D/D820A, form open): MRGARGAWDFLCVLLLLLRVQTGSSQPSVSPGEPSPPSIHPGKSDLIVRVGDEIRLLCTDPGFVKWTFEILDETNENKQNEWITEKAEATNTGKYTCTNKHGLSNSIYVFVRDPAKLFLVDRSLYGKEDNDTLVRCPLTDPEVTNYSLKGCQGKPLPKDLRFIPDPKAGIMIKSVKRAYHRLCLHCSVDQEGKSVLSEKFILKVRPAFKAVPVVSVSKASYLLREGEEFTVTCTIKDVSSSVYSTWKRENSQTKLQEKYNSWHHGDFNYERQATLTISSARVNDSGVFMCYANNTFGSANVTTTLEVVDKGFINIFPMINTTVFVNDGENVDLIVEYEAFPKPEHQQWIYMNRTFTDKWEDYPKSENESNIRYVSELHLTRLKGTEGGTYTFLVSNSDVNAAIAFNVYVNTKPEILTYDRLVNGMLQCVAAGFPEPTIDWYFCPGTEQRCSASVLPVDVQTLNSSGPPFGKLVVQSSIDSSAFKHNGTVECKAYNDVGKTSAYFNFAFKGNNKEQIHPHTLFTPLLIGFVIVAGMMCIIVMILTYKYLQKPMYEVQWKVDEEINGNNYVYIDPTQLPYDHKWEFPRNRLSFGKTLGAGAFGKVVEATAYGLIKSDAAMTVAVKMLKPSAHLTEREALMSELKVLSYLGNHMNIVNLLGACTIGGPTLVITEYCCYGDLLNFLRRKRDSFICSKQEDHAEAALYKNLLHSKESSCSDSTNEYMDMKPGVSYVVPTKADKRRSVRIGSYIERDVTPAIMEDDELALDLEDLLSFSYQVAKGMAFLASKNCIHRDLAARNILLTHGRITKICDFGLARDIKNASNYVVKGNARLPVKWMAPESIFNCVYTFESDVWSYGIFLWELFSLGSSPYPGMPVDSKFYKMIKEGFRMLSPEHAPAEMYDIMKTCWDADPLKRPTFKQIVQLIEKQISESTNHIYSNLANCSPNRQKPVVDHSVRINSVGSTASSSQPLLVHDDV

`CCn1c(=O)c(-c2cc(NC(=O)Nc3ccccc3)c(F)cc2Cl)cc2cnc(NC3CCN(C)CC3)cc21` [Example 46, 1-(4-chloro-5-(1-ethyl-7-(1-methylpiperidin-4-ylamino)-2-oxo-1,2-dihydro-1,6-naphthyridin-3-yl)-2-fluorophenyl)-3-phenylurea]: the IC50 is above 1000 nM in test [1], 10 to 100 nM in test [2] and 100 to 1000 nM in test [3].

Regarding `CCn1c(=O)c(-c2cc(NC(=O)Nc3ccccc3)c(F)cc2C)cc2cnc(Nc3ccc(C)nc3)cc21` [Example 111, 1-(5-(1-ethyl-7-((6-methylpyridin-3-yl)amino)-2-oxo-1,2-dihydro-1,6-naphthyridin-3-yl)-2-fluoro-4-methylphenyl)-3-phenylurea], the IC50 in test [1] fell in the range of 100 to 1000 nM; in test [2] it was 10 to 100 nM; in test [3], 10 to 100 nM.

Regarding `CCn1c(=O)c(-c2cc(NC(=O)Nc3ccccc3)c(F)cc2Br)cc2cnc(NCCS(C)(=O)=O)cc21` [Example 52, 1-(4-bromo-5-(1-ethyl-7-(2-(methylsulfonyl)ethylamino)-2-oxo-1,2-dihydro-1,6-naphthyridin-3-yl)-2-fluorophenyl)-3-phenylurea], the IC50 was below 10 nM in test [2] and 100 to 1000 nM in test [4].

Consider `CCn1c(=O)c(-c2cc(NC(=O)Nc3ccccc3)c(F)cc2Cl)cc2cnc(NC3CCOCC3)cc21` [Example 42, 1-(4-chloro-5-(1-ethyl-2-oxo-7-(tetrahydro-2H-pyran-4-ylamino)-1,2-dihydro-1,6-naphthyridin-3-yl)-2-fluorophenyl)-3-phenylurea], for which the IC50 in test [1] fell in the range of 100 to 1000 nM; in test [2], 10 to 100 nM; in test [3] it was 10 to 100 nM.

As to `CCn1c(=O)c(-c2cc(NC(=O)Nc3ccccc3)c(F)cc2F)cc2cnc(NC(C)=O)cc21` [Example 66, 1-(5-(7-acetamido-1-ethyl-2-oxo-1,2-dihydro-1,6-naphthyridin-3-yl)-2,4-difluorophenyl)-3-phenylurea], the IC50 was 10 to 100 nM in test [1]; 100 to 1000 nM in test [5]; 10 to 100 nM in test [6]; below 10 nM in test [2]; 10 to 100 nM in test [3].

Regarding `CCn1c(=O)c(-c2cc(NC(=O)Nc3ccccc3)c(F)cc2Cl)cc2cnc(NC(=O)[C@@H]3CCCN3)cc21` [Example 85, (S)—N-(3-(2-chloro-4-fluoro-5-(3-phenylureido)phenyl)-1-ethyl-2-oxo-1,2-dihydro-1,6-naphthyridin-7-yl)pyrrolidine-2-carboxamide], the results for the IC50 in test [1], in test [2] and in test [3] were 100 to 1000 nM, 10 to 100 nM and 10 to 100 nM, respectively.

As for `CCn1c(=O)c(-c2cc(NC(=O)Nc3ccc(F)c(CN(C)C)c3)c(F)cc2Cl)cc2cnc(NC)cc21` [Example 94, 1-(4-chloro-5-(1-ethyl-7-(methylamino)-2-oxo-1,2-dihydro-1,6-naphthyridin-3-yl)-2-fluorophenyl)-3-(3-((dimethylamino)methyl)-4-fluorophenyl)urea], the IC50 was 10 to 100 nM in test [1], below 10 nM in test [2] and above 1000 nM in test [3].

As for `CCn1c(=O)c(-c2cc(NC(=O)Nc3ccccc3)c(F)cc2Cl)cc2cnc(NCCS(C)(=O)=O)cc21` [Example 48, 1-(4-chloro-5-(1-ethyl-7-(2-(methylsulfonyl)ethylamino)-2-oxo-1,2-dihydro-1,6-naphthyridin-3-yl)-2-fluorophenyl)-3-phenylurea], the IC50 was above 1000 nM in test [1], 10 to 100 nM in test [2] and 100 to 1000 nM in test [3].

Consider `CCn1c(=O)c(-c2cc(NC(=O)Nc3ccccc3)c(F)cc2C#N)cc2cnc(NC)cc21` [Example 76, 1-(4-cyano-5-(1-ethyl-7-(methylamino)-2-oxo-1,2-dihydro-1,6-naphthyridin-3-yl)-2-fluorophenyl)-3-phenylurea], for which the IC50 in test [1] was 100 to 1000 nM; in test [2], below 10 nM; in test [3] it was 10 to 100 nM.

As for `CCn1c(=O)c(-c2cc(NC(=O)Nc3ccccc3)c(F)cc2Cl)cc2cnc(NC3CCOC3)cc21` (centres unmarked) [Example 47, 1-(4-chloro-5-(1-ethyl-2-oxo-7-(THF-3-ylamino)-1,2-dihydro-1,6-naphthyridin-3-yl)-2-fluorophenyl)-3-phenylurea], the IC50 in test [1] was above 1000 nM; in test [2], below 10 nM; in test [3], 10 to 100 nM.

With `CCn1c(=O)c(-c2cc(NC(=O)Nc3ccccc3)c(F)cc2F)cc2cnc(NC(=O)CC#N)cc21` [Example 75, 2-cyano-N-(3-(2,4-difluoro-5-(3-phenylureido)phenyl)-1-ethyl-2-oxo-1,2-dihydro-1,6-naphthyridin-7-yl)acetamide], the IC50 was 10 to 100 nM in test [1], below 10 nM in test [2], 100 to 1000 nM in test [3] and 100 to 1000 nM in test [4].

`CCn1c(=O)c(-c2cc(NC(=O)Nc3ccc(F)c(CN4CCOCC4)c3)c(F)cc2Cl)cc2cnc(NC=O)cc21` [Example 107, N-(3-(2-chloro-4-fluoro-5-(3-(4-fluoro-3-(morpholinomethyl)phenyl)ureido)phenyl)-1-ethyl-2-oxo-1,2-dihydro-1,6-naphthyridin-7-yl)formamide]: the IC50 in test [1] is 10 to 100 nM; in test [2], 10 to 100 nM; in test [3] it was above 1000 nM.

As to `CCn1c(=O)c(-c2cc(NC(=O)Nc3ccccc3)c(F)cc2Cl)cc2cnc(NC3CCN(C)C3)cc21` (centres unmarked) [Example 49, 1-(4-chloro-5-(1-ethyl-7-(1-methylpyrrolidin-3-ylamino)-2-oxo-1,2-dihydro-1,6-naphthyridin-3-yl)-2-fluorophenyl)-3-phenylurea], the IC50 in test [1] was 100 to 1000 nM; in test [2] it was 10 to 100 nM; in test [3], 100 to 1000 nM.
